# Assay results as given in patent US8324188B2, “Combinations of ET-18-O-CH3and anti-cancer agents for the treatment of cancer” (priority 2006, dated 2012).
# Tests used:
# [1] = test system: androgen-insensitive LNCaP-Res cells; assay: apoptosis in LNCaP-Res cells; assay type: cell-based, human; details: data not shown
# [2] = test system: androgen-insensitive LNCaP C4-2; assay: apoptosis in LNCaP C4-2 cells; assay type: cell-based, human; details: data not shown
# [3] = test system: T98G; assay: WST-1 proliferation assay, T98G; assay type: cell-based; details: Homo sapiens
# Description: (§1) AP-121 was prepared as 5 mM stock solution in distilled sterile water, Temozolomide (TMZ) (Haorui Pharma-Chem, Inc., Edison, N.J.) was prepared as 100 mM in sterile filtrated DMSO; Adriamycin (ADR) (Sigma) was prepared as 1 mM in distilled sterile water; Camptothecin (CTP) (Sigma) was prepared as 10 mM solution in 0.1 N NaOH; Tarceva (Proteinkinase, Germany) was prepared as 5 mM solution in sterile DMSO. All compound stocks were kept at −20° C. 2000 cells were plated in each well of 96-well flat bottom plates, and incubated overnight at 37 °C in 5% CO2. The growth of plated cells was measured by adding […] of WST-1 reagent (Roche Applied Sciences, Germany) to 3 control wells and measuring the absorbance at 650 nm and at 450 nm, respectively, with a SpectraMax250 plate reader. […] After this incubation, VVST-1 reagent was added to the wells and OD650-OD450 values were calculated as before. six wells were assayed for each conditions and standard deviation was determined: all experiments were performed at least three times independently. […] Six different concentrations of each drug were used in combinations index measurements and compared to +/− cells, and compared to controls without compound.
# [4] = test system: A431; details: mean ± SD from three independent experiments, read-out: ED50 values for induction of apoptosis; cited from earlier work
# [5] = test system: A172; assay: WST-1 proliferation assay, A172; assay type: cell-based, human
# Description: as §1
# [6] = test system: U118MG; assay: WST-1 proliferation assay, U118MG; assay type: cell-based, human
# Description: as §1, with “compound. Each combination was repeated 6 times at 2 different time points (24 and 96 hours), each of the above experiments was repeated 3 times to obtain valid results.” for “compound.”
# [7] = test system: LNCaP androgen-sensitive human prostate adenocarcinoma cells; assay: trypan blue dye exclusion, living LNCaP cells; assay type: cell-based
# Description: FIG. 1. Depicts the in vitro effects of 1-O-octadecyl-2-O-methyl-glycero-3-phosphocholine (final concentration 10 μM), (ionizing) radiation (absorbed dose of 5 Gray units; indicated as “RT”), and a combination thereof on programmed cell death (apoptosis) and the survival rate of LNCaP androgen-sensitive human prostate adenocarcinoma cells. Apoptosis was determined using the Apo-ONE™ Homogenous Caspase-317 Assay, Promega, Inc., Madison, Wis., USA according to the manufacturers instructions. The percentage of living cancer cells was estimated by means of trypan blue dye exclusion as described (Freshney, R. I. (1994) Culture of Animal Cells: A Manual of Basic Technique. 3rd Ed. Wiley-Liss. New York. USA). The cells were exposed to radiation six hours after (FIG. 1A), concomitantly with (FIG. 1B), or six hours before administration of 1-O-octadecyl-2-O-methyl-glycero-3-phospho-choline (FIG. 1C). The caspase assay was performed 12 hours after exposure to radiation. The respective data shown represent the average of two independent experiments.
# First, the in vitro effects of 1-O-octadecyl-2-O-methyl-glycero-3-phosphocholine, (ionizing) radiation, and a combination thereof on programmed cell death (apoptosis) and the survival rate of LNCaP androgen-sensitive human prostate adenocarcinoma cells were measured. The LNCaP cell line was established from a metastatic lesion of the adenocarcinoma. The cells were treated with a final concentration of 10 μM 1-O-octadecyl-2-O-methyl-glycero-3-phosphocholine and (ionizing) radiation corresponding to an absorbed dose of 5 Gray units.
# Apoptosis was determined using the Apo-ONE™ Homogenous Caspase-3/7 Assay, Promega, Inc., Madison, VV1, USA according to the manufacturers instructions. The percentage of living tumor cells was estimated by means of trypan blue dye exclusion as described (Freshney, R. I. (1994) Culture of Animal Cells: A Manual of Basic Technique. 3rd Ed. Wiley-Liss. New York. USA)
# The cells were exposed to radiation six hours after (FIG. 1A), concomitantly with (FIG. 1B), or six hours before administration of 1-O-octadecyl-2-O-methyl-glycero-3-phospho-choline (FIG. 1C). The caspase assay was performed 12 hours after exposure to radiation. The respective data shown represent the average of two independent experiments.
# [8] = test system: HeLa; details: mean ± SD from three independent experiments, read-out: ED50 values for induction of apoptosis; cited from earlier work
compound,measurement,setting,value
"CCCCCCCCCCCCCCCCCCOCC(COP(=O)([O-])OCC[N+](C)(C)C)OC (racemic) [AP-121, 1-O-octadecyl-2-O-methyl-glycero-3-phosphocholine]",apoptosis in CHEM+RT treated cells,[1],enhancement of apoptosis
same,apoptosis in CHEM+RT treated cells,[2],enhancement of apoptosis
same,IC50,[3],4.1 µM
same,EC50,[4],15.5 ± 2.9 µM
same,IC50,"[5]; Homo sapiens, A 172",4.6 µM
same,EC50,"[5]; Homo sapiens, A 172, single agent or compound mixture as labelled (arrays A2, A1), read-out: ED50 (the source's name)",4.2 µM
same,"normalized ED50 (arrays B2, B1)",[5]; ratio to the largest value,0.62
same,IC50,"[6]; Homo sapiens, U-118-MG",3.6 µM
same,EC50,"[6]; Homo sapiens, U-118-MG, single agent or compound mixture as labelled (arrays A2, A1), read-out: ED50 (the source's name)",4.8 µM
same,"normalized ED50 (arrays B2, B1)",[6]; ratio to the largest value,0.71
same,survival of the cells,"[7]; 10 μM administered six hours after radiation (5 Gray), combined treatment (FIG. 1C)",about 40%
same,survival of the tumor cells,"[7]; 10 μM administered six hours prior to radiation (5 Gray), combined treatment, untreated controls about 85% (FIG. 1A)",about 45%
same,survival rate,"[7]; 10 μM concomitant with radiation (5 Gray), untreated controls about 86% (FIG. 1B)",about 55%
same,survival rate,"[7]; 10 μM, individual chemical treatment (FIG. 1B)",about 50%
same,survival rate,"[7]; 10 μM, individual chemical treatment (FIG. 1C)",about 45%
same,survival rate,"[7]; 10 μM, individual treatment without radiation (FIG. 1A)",about 60%
same,EC50,[8],5.17 ± 1.6 µM
